Test results published in US6413974B1, “6,9,-disubstituted 2-[trans-(4-aminocyclohexyl) amino] purines” (Aventis Pharmaceuticals Inc., priority 1998, dated 2002).
“And” between values parts separate entries of the source, which are not always exact repeats. Equal values may be shown once. Where a name gives a salt, the structure may show the parent alone. Read-outs that look alike come from different tables or passages of the source.

Columns and labels:
cdk2/cyclin E = target: T1, cdk2/cyclin E (Homo sapiens, UniProt P24941); assay: Cyclin-Dependent Kinase 2 Assay (cdk-2 inhibition); assay type: biochemical; conditions: GST-Rb substrate, 30 min at 30° C.
T1 construct: made in house; host or cells: insect cells (baculovirus co-infection)
Procedure: (§1) The transformed bacteria were grown overnight to saturation, then diluted in YT broth and incubated at 37° C. for 2 h. The protein was induced by incubation with 0.1 mM isopropylthioglycoside for 3 h. Following sedimentation by centrifugation, the cells were lysed by sonication in STE buffer ([…] NaCl, 10 mM Tris, pH 8.0, 1 mM EDTA) containing 10% sarkosyl. Particulate matter was removed by centrifugation and the lysate was incubated with glutathione-Sepharose at 4° C. The beads were washed with kinase buffer and then quantitation of Coomassie blue-stained proteins separated by SDS-PAGE was performed using a protein standard of known concentration.
(§2) Pre-wet Millipore Multiscreen 96-well filter plates (0.65 μm Durapore filters) with 200 μl kinase buffer (50 mM HEPES, pH 7.5, 10 mM MgCl2, 1 mM EGTA). GST-Rb (0.5 μg) bound to glutathione-Sepharose beads is added in 50 μl per well and the solution removed by application of vacuum. […] Add 0.1 μg cdk4/cyclin D1 (insect cell lysate) to initiate assay. Incubate 30 min at 37° C. Terminate reaction by filtration on Millipore Vacuum Manifold. Wash four times with TNEN (20 mM Tris, pH 8.0, 100 mM Na Cl, 1 mM EDTA, 0.5% nonidet P-40). After drying the plates at room temperature, the filter plates were placed in adapter plates (Packard) and 40 μl of Microscint-O® (Packard) was added to each well. Top Seal A film was used to cover the plates before counting in a Top Count Scintillation Counter.
GST-Rb as described above for cdk4/cyclin D1
Assay conditions for cdk2/cyclin E were identical to those for cdk4/cyclin D1 including the substrate. The concentration of recombinant cdk2/cyclin E in the assay was 0.1 μg per 100 μl assay. Incubation was for 30 min at 30° C.

cdk4/cyclin D1 = target: T2, cdk4/cyclin D1 (Homo sapiens, UniProt P11802); assay: Cyclin-dependent kinase 4 Assay; assay type: biochemical; conditions: cdk4/cyclin D1, GST-Rb substrate, 10 μM ATP, 30 min at 37° C.; read-out: CDK4 Inhibition IC50
T2 construct: made in house; host or cells: Sf9 insect cells (Bac-to-Bac baculovirus, pFastBac)
Procedure: The IC50 values for cdk-4 inhibition were by the following method:
as §1
The cDNA for human cyclin D1 was cloned by RT PCR using […] from MCF-7 cells. […] Bacmid DNA was used to transfect Sf9 insect cells to produce recombinant virus. Following plaque purification of the virus, the viral preparations were amplified until high titer stocks were acheived.
Lysates were prepared by lysis of Sf9 cells coinfected with cdk4 and cyclin D1 in 50 mM HEPES, pH 7.5, 10 mM MgCl2, 1 mM DTT, 0.1 mM phenylmethylsulfonyl fluoride, 5 μg/ml aprotinin, and 5 μg/ml leupeptin using a PARR bomb under 500 p.s.i nitrogen pressure for 5 min at 4° C. Insoluble material was sedimented at 10,000×g for 20 min at 4° C. Glycerol was added to the supernatant to 10% and stored at −80° C. in aliquots.
as §2

MDA-MB-231 = assay: In vitro tumor cell proliferation, MDA-MB-231; assay type: cell-based, human; conditions: read-out: In vitro Tumor Cell Proliferation (IC50, μM) Breast MDA-MB-231
Procedure: (§3) The proliferation of tumor cells was measured using a sulforhodamine B assay as described in Skehan, P., et al., J. Natl. Cancer Inst. […] Tumor cells were harvested with trypsin-EDTA, cells that excluded trypan blue were counted, added to 96-well plates and incubated overnight at 37° C. Drug was added to the wells following dilution in culture medium. Three days later, the medium was removed and replenished with medium containing fresh drug and incubated an additional 4 days. The cells were then fixed with 0.1 ml 10% trichloroacetic acid for 60 min at 4° C. The plates were rinsed five times with tap water, air-dried and stained for 30 min with 0.4% sulforhodamine B in 1% acetic acid and air-dried.
(§4) Alternatively, the CyQUANT cell proliferation assay was used to quantify tumor cell proliferation. Tumor cells were harvested with trypsin-EDTA, cells that excluded trypan blue were counted, added to 96-well plates and incubated overnight at 37° C. Drug was added to the wells following dilution in culture medium. Three days later the medium was removed and the plates frozen at −80° C. for at least 30 minutes.

HT-29 = assay: In vitro tumor cell proliferation, HT-29; assay type: cell-based, human; conditions: read-out: In vitro Tumor Cell Proliferation (IC50, μM) Colon HT-29 (converted)
Procedure: as §3, §4
HT-29 is a human colon adenocarcinoma, moderately well-differentiated grade II (HTB 38);

Colo-205 = assay: In vitro tumor cell proliferation, Colo-205; assay type: cell-based, human; conditions: read-out: In vitro Tumor Cell Proliferation (IC50, μM) Colon Colo-205
Procedure: as §3, §4

A549 = assay: In vitro tumor cell proliferation, A549; assay type: cell-based, human; conditions: read-out: In vitro Tumor Cell Proliferation (IC50, μM) Lung A549
Procedure: as §3, §4

DMS-114 = assay: In vitro tumor cell proliferation, DMS-114; assay type: cell-based, human; conditions: read-out: In vitro Tumor Cell Proliferation (IC50, μM) Lung DMS-114
Procedure: as §3, §4

PC-3 = assay: In vitro tumor cell proliferation, PC-3; assay type: cell-based, human; conditions: read-out: In vitro Tumor Cell Proliferation (IC50, μM) Prostate PC-3
Procedure: as §3, §4

DU 145 = assay: In vitro tumor cell proliferation, DU 145; assay type: cell-based, human; conditions: read-out: In vitro Tumor Cell Proliferation (IC50, μM) Prostate DUI45
Procedure: as §3, §4

MDA-MB-435 = assay: In vitro tumor cell proliferation, MDA-MB-435; assay type: cell-based, human; conditions: read-out: In vitro Tumor Cell Proliferation (IC50, μM) Breast MDA-MB-435
Procedure: as §3, §4

[1] = Homo sapiens, MDA-MB-231, values marked * (mark not explained)
[2] = values marked * (mark not explained), trihydrochloride
[3] = Homo sapiens, HT-29, values marked * (mark not explained)
[4] = Homo sapiens, COLO 205, values marked * (mark not explained)
[5] = Homo sapiens, A549, values marked * (mark not explained)
[6] = Homo sapiens, DMS-114, values marked * (mark not explained)
[7] = Homo sapiens, PC-3, values marked * (mark not explained)
[8] = Homo sapiens, DU-145, values marked * (mark not explained)
[9] = values marked * (mark not explained), dihydrochloride
[10] = values without *, dihydrochloride

T2 sequence (P11802 whole entry): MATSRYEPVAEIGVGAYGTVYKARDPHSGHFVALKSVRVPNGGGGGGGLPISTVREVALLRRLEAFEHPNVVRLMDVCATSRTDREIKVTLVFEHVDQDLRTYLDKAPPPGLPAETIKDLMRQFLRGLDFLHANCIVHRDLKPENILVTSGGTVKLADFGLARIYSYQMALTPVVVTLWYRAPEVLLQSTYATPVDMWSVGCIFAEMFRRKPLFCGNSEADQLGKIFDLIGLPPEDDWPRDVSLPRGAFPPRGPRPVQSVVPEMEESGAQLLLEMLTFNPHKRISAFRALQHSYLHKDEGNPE
T2 sequence (P24385 whole entry partner): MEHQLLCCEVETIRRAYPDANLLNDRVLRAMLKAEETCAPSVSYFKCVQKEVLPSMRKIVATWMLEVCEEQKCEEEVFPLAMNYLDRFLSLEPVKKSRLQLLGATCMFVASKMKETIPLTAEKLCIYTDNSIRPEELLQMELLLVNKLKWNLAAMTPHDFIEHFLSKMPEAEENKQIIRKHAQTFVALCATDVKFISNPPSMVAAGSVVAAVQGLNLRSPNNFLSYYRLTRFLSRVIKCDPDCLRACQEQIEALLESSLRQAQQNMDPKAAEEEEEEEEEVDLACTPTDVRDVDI

| SMILES | IC50 (cdk2/cyclin E) | IC50 (cdk4/cyclin D1) | IC50 (HT-29; [3]) | IC50 (Colo-205; [4]) | IC50 (A549; [5]) | IC50 (DMS-114; [6]) | IC50 (PC-3; [7]) | IC50 (DU 145; [8]) | IC50 (HT-29; [9]) | IC50 (A549; [9]) | further results |
| --- | --- | --- | --- | --- | --- | --- | --- | --- | --- | --- | --- |
| N[C@H]1CC[C@H](Nc2nc(NCCc3ccc4c(c3)OCO4)c3ncn(C4CCCC4)c3n2)CC1 [Example 4, 2-[Trans-(4-aminocyclohexyl)amino]-6-[2-(3,4-methylenedioxyphenyl)ethylamino]-9-cyclopentylpurine dihydrochloride] | 5100 nM | > 100000 nM | – | – | – | – | – | – | – | – | – |
| C[C@H](Nc1nc(N[C@H]2CC[C@H](N)CC2)nc2c1ncn2C1CCCC1)c1ccccc1 [Example 6, (S)-2-[Trans-(4-aminocyclohexyl)amino]-6-[(α-methylbenzyl)amino]-9-cyclopentylpurine dihydrochloride] | 2600 nM | > 100000 nM | – | – | – | – | – | – | – | – | – |
| N[C@H]1CC[C@H](Nc2nc(NCCN3CCOCC3)c3ncn(C4CCCC4)c3n2)CC1 [Example 13, 2-[Trans-(4-aminocyclohexyl)amino]-6-[2-(4-morpholinyl)ethylamino]-9-cyclopentylpurine trihydrochloride] | 110 nM | 3200 nM and 4200 nM | 11 µM | 5.3 µM | 7.9 µM | 8.8 µM | 7.2 µM | 6.7 µM | – | – | IC50 (MDA-MB-231; [1]): 4.8 µM; IC50 (MDA-MB-231; [2]): 9.4 µM; IC50 (Colo-205; [2]): 5.2 µM; IC50 (A549; [2]): 6.9 µM; IC50 (DMS-114; [2]): 6.2 µM; IC50 (PC-3; [2]): 6.4 µM; IC50 (DU 145; [2]): 7.5 µM |
| CC(C)n1cnc2c(NCc3cccc(Cl)c3)nc(N[C@H]3CC[C@H](N)CC3)nc21 [Example 15, 2-[Trans-(4-aminocyclohexyl)amino]-6-[(3-chloro)benzylamino]-9-(2-propyl)purine dihydrochloride] | 100 nM | 1500 nM | 2.7 µM | 2.4 µM | 1.4 µM | 1.3 µM | 2.3 µM | 2.8 µM | – | – | IC50 (MDA-MB-231; [1]): 3 µM |
| N[C@H]1CC[C@H](Nc2nc(NCc3ccccc3Cl)c3ncn(C4CCCC4)c3n2)CC1 [Example 18, 2-[Trans-(4-aminocyclohexyl)amino]-6-[(2-chlorobenzyl)amino]-9-cyclopentylpurine dihydrochloride] | 120 nM and 100 nM | 1300 nM and 1000 nM | 2.4 µM | – | 1.7 µM | – | – | – | 2.5 µM and 4.1 µM | 2.2 µM and 1.8 µM | IC50 (MDA-MB-435; Homo sapiens, MDA-MB-435, values marked * (mark not explained)): 8 µM; IC50 (MDA-MB-435; [9]): 8.2 µM |
| CCNc1nc(N[C@H]2CC[C@H](N)CC2)nc2c1ncn2C1CCCC1 [Example 33, 2-[Trans-(4-aminocyclohexyl)amino]-6-(ethylamino)-9-cyclopentylpurine dihydrochloride] | 14 nM and 26 nM and 6 nM | 180 nM | 1.5 µM | 2.1 µM | 1.2 µM | 0.7 µM | 0.9 µM | 0.8 µM | 2.1 µM | 1.8 µM | IC50 (DMS-114; [9]): 0.9 µM; IC50 (PC-3; [9]): 1 µM |
| N[C@H]1CC[C@H](Nc2nc(NCc3ccco3)c3ncn(C4CCCC4)c3n2)CC1 [Example 38, 2-[Trans-(4-aminocyclohexyl)amino]-6-(2-furanmethylamino)-9-cyclopentylpurine dihydrochloride] | 19 nM | 1400 nM | 2.1 µM | 2.4 µM | 1.7 µM | 1.2 µM | 1.4 µM | – | 3.6 µM | 1.1 µM | IC50 (Colo-205; [9]): 2.8 µM; IC50 (PC-3; [9]): 1.7 µM |
| N[C@H]1CC[C@H](Nc2nc(NCc3ccccc3F)c3ncn(C4CCCC4)c3n2)CC1 [Example 42, 2-[Trans-(4-aminocyclohexyl)amino]-6-[(2-fluorobenzyl)amino]-9-cyclopentylpurine dihydrochloride] | 420 nM | 1000 nM and 6000 nM | – | – | – | – | – | – | – | – | IC50 (MDA-MB-231; Homo sapiens, MDA-MB-231, values without *): 16 µM; IC50 (MDA-MB-231; [10]): 17 µM; IC50 (HT-29; Homo sapiens, HT-29, values without *): 15 µM; IC50 (A549; Homo sapiens, A549, values without *): 7.1 µM; IC50 (DMS-114; Homo sapiens, DMS-114, values without *): 10 µM; IC50 (DMS-114; [10]): 5.1 µM; IC50 (PC-3; Homo sapiens, PC-3, values without *): 8.8 µM; IC50 (PC-3; [10]): 7.1 µM; IC50 (DU 145; Homo sapiens, DU-145, values without *): 7.3 µM |
| CC(C)n1cnc2c(NCc3cccc(I)c3)nc(N[C@H]3CC[C@H](N)CC3)nc21 [Example 51, 2-[Trans-(4-aminocyclohexyl)amino]-6-[(3-iodobenzyl)amino]-9-(2-propyl)purine dihydrochloride] | 780 nM | 2100 nM | – | – | – | – | – | – | – | – | – |
